Like-named read-outs stand apart in the source and are kept apart here. Marks after values point to notes of the source that are not given here.
Experiments:
[1] = Evaluation of pharmacokinetic profile: plasma and brain concentrations after oral dosing; type: in vivo, Wistar rats; conditions: rat, 10 mg/kg po; for concentration at 1 h / concentration at 2 h: male, Wistar; for concentration at 1 h: 1 h post-dosing; for concentration at 2 h: 2 h post-dosing
Procedure: Adult male Wistar rats were kept under controlled environmental conditions (12 h light/dark cycle, room temperature 22±1° C. and humidity 50±5%, food and tap water ad libitum). On the day before the experiment, the animals were fasted. In experiments designed to evaluate the pharmacokinetic profile of Examples 56, 66, 199 and 232, rats (n=4) were administered orally (p.o.) with examples 56, 66, 199 and 232 (10 mg/kg/4 mL; vehicle: 40% kleptose) and plasma and brain samples were collected from anaesthetized animals at 1 and 2 h post-dosing. Animals were anaesthetized by intraperitoneal administration of sodium pentobarbital (60 mg/kg). Blood was collected from cardiac punction into heparinised tubes and kept on ice until centrifugation at 1,500 g for 15 min at 4° C. Plasma and brain samples were stored at less than −20° C. until analysis.
After thawing, 200 μL of acetonitrile 0.1% formic acid was added to 100 μL of plasma. The samples were vortexed and centrifuged for 10 min at 10 000 g. Supernatant was filtered and injected into a mass spectrometer.
After thawing and weighing, water was added to the brain to give a tissue concentration of […]. The samples were then homogenized using a Heidolph DIAX 900 mixer and transferred to plastic tubes. Following centrifugation at 10 000 g for 20 min, supernatant was taken and treated as described for plasma.

[2] = target: T1, Dopamine beta hydroxylase (Homo sapiens, UniProt P09172); test: Dopamine beta hydroxylase activity in human plasma; type: biochemical; conditions: for Plasma (1 μM), activity in % of control: inhibitor 1 μM
T1 construct: 125 μl of plasma; tissue Instituto Português do Sangue Transplantação; host or cells: human plasma from healthy donors
T1 sequence (P09172 40-617 limits assumed): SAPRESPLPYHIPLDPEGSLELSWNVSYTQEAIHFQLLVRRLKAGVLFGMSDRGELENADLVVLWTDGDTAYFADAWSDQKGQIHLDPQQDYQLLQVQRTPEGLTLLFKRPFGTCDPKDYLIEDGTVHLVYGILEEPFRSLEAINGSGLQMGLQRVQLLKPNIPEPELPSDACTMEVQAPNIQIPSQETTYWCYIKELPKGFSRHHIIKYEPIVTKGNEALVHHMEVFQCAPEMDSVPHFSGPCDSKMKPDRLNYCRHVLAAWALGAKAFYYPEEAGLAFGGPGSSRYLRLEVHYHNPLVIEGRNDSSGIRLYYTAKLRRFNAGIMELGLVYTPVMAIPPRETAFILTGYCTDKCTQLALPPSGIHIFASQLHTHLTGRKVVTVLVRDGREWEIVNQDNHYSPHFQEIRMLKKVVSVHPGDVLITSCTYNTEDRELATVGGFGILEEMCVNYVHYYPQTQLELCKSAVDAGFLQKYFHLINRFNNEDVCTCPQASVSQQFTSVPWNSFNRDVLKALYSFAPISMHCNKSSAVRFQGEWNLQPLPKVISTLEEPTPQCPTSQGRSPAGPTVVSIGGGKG
In short: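 Healthy-donor human plasma pre-incubated 10 min at 37° C with compound at final 10, 100 or 1000 nM in pH 5.0 acetate buffer with ascorbate, fumarate, pargyline, N-ethylmaleimide, catalase and copper sulfate. Tyramine substrate then added for 45 min; octopamine formed was isolated by SCX cartridge, periodate-converted and read at 330 nm; activity given as % control.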

[3] = literature; cited from earlier work
DβH [4] = target: T2, DβH (Homo sapiens, UniProt P09172); test: DβH inhibition assay in SK-N-SH cellular homogenates (tyramine to octopamine); type: biochemical; conditions: SK-N-SH cell homogenate; for SKNSH (0.1 μM), activity in % of control: inhibitor 0.1 μM; for SKNSH (1 μM), activity in % of control: inhibitor 1 μM
T2 construct: cellular homogenate (75 μg total protein); host or cells: SK-N-SH cells (homogenate)
T2 sequence (P09172 1-617): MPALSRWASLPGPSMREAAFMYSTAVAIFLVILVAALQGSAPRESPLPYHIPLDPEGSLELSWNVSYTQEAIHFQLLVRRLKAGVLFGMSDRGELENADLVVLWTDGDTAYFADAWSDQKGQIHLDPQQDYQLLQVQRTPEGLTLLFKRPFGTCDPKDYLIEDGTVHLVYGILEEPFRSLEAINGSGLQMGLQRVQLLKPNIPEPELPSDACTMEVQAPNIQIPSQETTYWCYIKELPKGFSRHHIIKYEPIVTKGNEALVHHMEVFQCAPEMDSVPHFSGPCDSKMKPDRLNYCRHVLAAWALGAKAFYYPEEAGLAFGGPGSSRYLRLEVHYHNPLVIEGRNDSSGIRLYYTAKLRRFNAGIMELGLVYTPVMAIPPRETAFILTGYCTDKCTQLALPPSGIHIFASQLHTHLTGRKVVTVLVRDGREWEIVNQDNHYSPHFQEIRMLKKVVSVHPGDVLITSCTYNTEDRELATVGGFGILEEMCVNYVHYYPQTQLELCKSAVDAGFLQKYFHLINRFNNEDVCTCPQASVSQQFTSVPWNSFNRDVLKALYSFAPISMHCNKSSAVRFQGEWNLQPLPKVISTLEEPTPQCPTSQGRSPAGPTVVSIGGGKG

DβH [5] = conditions: Stanley et al., Br. J. Pharmacol. 1997; cited from earlier work
[6] = brain, read-out: Cbr (ng/g) at 1 h
[7] = brain, read-out: Cbr (ng/g) at 2 h
[8] = plasma, read-out: Cpl (ng/mL) at 1 h
[9] = plasma, read-out: Cpl (ng/mL) at 2 h

concentration at 1 h [1, 6] [ng/g]	concentration at 2 h [1, 7] [ng/g]	concentration at 1 h [1, 8] [ng/mL]	concentration at 2 h [1, 9] [ng/mL]	peripheral selectivity (exposure in plasma compared to brain) [1]	Plasma (0.1 μM), activity in % of control ([2]; inhibitor 0.1 μM)	Plasma (1 μM), activity in % of control [2]	SKNSH (0.1 μM), activity in % of control (DβH [4])	SKNSH (1 μM), activity in % of control (DβH [4])	Structure (SMILES)	also measured
0	0	779	429	peripherally selective	52.3 % of control	6.4 % of control	–	–	O=C(Cc1[nH]c(=S)n2c1[C@@H]1C[C@]1(c1cc(Cl)ccc1F)C2)N1CCOCC1 [Example 66, 2-((5aS,6aR)-5a-(5-chloro-2-fluorophenyl)-3-thioxo-2,3,5,5a,6,6a-hexahydrocyclopropa[3,4]pyrrolo[1,2-c]imidazol-1-yl)-1-morpholinoethan-1-one]	–
–	–	–	–	–	–	–	–	–	CCN(CC)C(=S)SSC(=S)N(CC)CC [disulfiram]	toxic side effects [3]: toxic side effects
–	–	–	–	–	–	–	–	–	CCN(CC)C(=S)S [diethyldithiocarbamate]	toxic side effects [3]: toxic side effects
–	–	–	–	–	–	–	–	–	CCCCc1ccc(C(=O)O)nc1 [fusaric acid]	toxic side effects [3]: toxic side effects
45	0	1640	777	peripherally selective	0.6 % of control	–	–	–	Cl.Fc1cc(F)c(F)c([C@H]2Cc3c(CCN4CCOCC4)[nH]c(=S)n3C2)c1F [Example 199, (R)-1-(2-morpholinoethyl)-6-(2,3,5,6-tetrafluorophenyl)-2,5,6,7-tetrahydro-3H-pyrrolo[1,2-c]imidazole-3-thione Hydrochloride]	Plasma (0.01 μM), activity in % of control ([2]; inhibitor 0.01 μM): 27.4 % of control; Plasma (0.01 μM), activity in % of control, re-test (asterisked) ([2]; inhibitor 0.01 μM, re-tested under the same experimental conditions, asterisked data believed to be correct): 119.3* % of control; Plasma (0.1 μM), activity in % of control, re-test (asterisked) ([2]; inhibitor 0.1 μM, re-tested under the same experimental conditions, asterisked data believed to be correct): 84.9* % of control
24	46	1710	1310	peripherally selective	6.4 % of control	–	–	–	Cn1c(CC(=O)N[C@@H]2CCOC2)c2n(c1=S)C[C@H](c1c(F)ccc(Br)c1F)C2 [Example 232, 2-((S)-6-(3-bromo-2,6-difluorophenyl)-2-methyl-3-thioxo-2,5,6,7-tetrahydro-3H-pyrrolo[1,2-c]imidazol-1-yl)-N—((R)-tetrahydrofuran-3-yl)acetamide]	Plasma (0.01 μM), activity in % of control ([2]; inhibitor 0.01 μM): 48.8 % of control
–	–	–	–	–	–	–	–	–	NCc1c[nH]c(=S)n1[C@H]1CCc2c(F)cc(F)cc2C1 [nepicastat]	IC50 (DβH [5]): 9 nM; crossing of the BBB [3]: cross the BBB
–	–	–	–	–	5.7 % of control	0 % of control	0.4 % of control	0 % of control	O=C(O)Cc1[nH]c(=S)n2c1[C@@H]1C[C@]1(c1c(F)ccc(Br)c1F)C2 [Example 51, 2-((5aS,6aR)-5a-(3-bromo-2,6-difluorophenyl)-3-thioxo-2,3,5,5a,6,6a-hexahydrocyclopropa[3,4]pyrrolo[1,2-c]imidazol-1-yl)acetic Acid]	–
–	–	–	–	–	59.2 % of control	14.0 % of control	56.8 % of control	9.3 % of control	NC(=O)Cc1[nH]c(=S)n2c1[C@@H]1C[C@]1(c1cc(F)cc(Cl)c1)C2 [Example 58, 2-((5aS,6aR)-5a-(3-chloro-5-fluorophenyl)-3-thioxo-2,3,5,5a,6,6a-hexahydrocyclopropa[3,4]pyrrolo[1,2-c]imidazol-1-yl)acetamide]	–
–	–	–	–	–	32.2 % of control	3.4 % of control	33.8 % of control	4.2 % of control	CCOC(=O)Cc1[nH]c(=S)n2c1[C@@H]1C[C@]1(c1cc(Cl)ccc1F)C2 [Example 54, Ethyl 2-((5aS,6aR)-5a-(5-chloro-2-fluorophenyl)-3-thioxo-2,3,5,5a,6,6a-hexahydrocyclopropa[3,4]pyrrolo[1,2-c]imidazol-1-yl)acetate]	–
–	–	–	–	–	62.1 % of control	11.1 % of control	48.9 % of control	3.9 % of control	CCOC(=O)Cc1[nH]c(=S)n2c1[C@@H]1C[C@]1(c1cc(F)cc(Cl)c1)C2 [Example 55, Ethyl 2-((5aS,6aR)-5a-(3-chloro-5-fluorophenyl)-3-thioxo-2,3,5,5a,6,6a-hexahydrocyclopropa[3,4]pyrrolo[1,2-c]imidazol-1-yl)acetate]	–

Structure (SMILES)	concentration at 1 h [1, 6] [ng/g]	concentration at 2 h [1, 7] [ng/g]	concentration at 1 h [1, 8] [ng/mL]	concentration at 2 h [1, 9] [ng/mL]	peripheral selectivity (exposure in plasma compared to brain) [1]	Plasma (0.1 μM), activity in % of control ([2]; inhibitor 0.1 μM)	Plasma (1 μM), activity in % of control [2]	SKNSH (0.1 μM), activity in % of control (DβH [4])	SKNSH (1 μM), activity in % of control (DβH [4])	also measured
NC(=O)Cc1[nH]c(=S)n2c1[C@@H]1C[C@]1(c1cc(Cl)ccc1F)C2 [Example 56]	20	21	1500	1130	peripherally selective	38.5 % of control	5.5 % of control	45.6 % of control	5.2 % of control	–

— patent publication US11434242B2, “Dopamine-b-hydroxylase inhibitors” (BIAL-PORTELA & Cª, S.A., priority 2017, dated 2022)
